This passage reports IC50 results from US9249129B2, “Morpholino substituted urea derivatives as mTOR inhibitors” (CELLZOME LIMITED, priority 2010, dated 2016).

Read-outs that look alike come from different tables or passages of the source.

The test has as its target T1, mTOR (Homo sapiens, UniProt P42345).
T1 construct: endogenous in cells; host or cells: Jurkat cells (ATCC TIB-152, clone E6-1), lysate
In words: mTOR kinobeads assay (dot blot detection). It counts as binding. In outline:
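Jurkat cell lysate (5 mg/mL protein) incubated 2 h in the cold with test compound (9-step 1:3 series) and immobilized phenylthiazole/phenylmorpholin-chromen ligand beads. Bead-bound kinases eluted, detected by specific antibody dot blot with infrared readout; IC50 from dose-response curves.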

[1] abbreviates: Table 2, Jurkat cell lysate, read-out: Inhibition values (IC50) mTor.
Setting [2] is: Table 4, read-out: Inhibition values (IC50) mTOR.

By IC50 is commonly meant the concentration needed to halve the response being measured. For the molecule `C[C@H]1COCCN1c1ccnc(-c2ccc(NC(=O)Nc3ccncc3)cc2)n1` [Example 60, (S)-1-(4-(4-(3-methylmorpholino)pyrimidin-2-yl)phenyl)-3-(pyridin-4-yl)urea], the IC50 fell in the range of 100 to 1000 nM under setting [1] and 100 to 1000 nM under setting [2].
As for `C[C@H]1COCCN1c1nc(-c2ccc(NC(=O)NCC(F)F)cc2)cc(-c2cc(F)ccc2S(C)(=O)=O)n1` [Example 47, (S)-1-(2,2-difluoroethyl)-3-(4-(6-(5-fluoro-2-(methylsulfonyl)phenyl)-2-(3-methylmorpholino)pyrimidin-4-yl)phenyl)urea], the IC50 under setting [1] fell in the range of 100 to 1000 nM and the IC50 under setting [2] was in the range of 100 to 1000 nM.
With `O=C(Nc1ccncc1)Nc1ccc(-c2nccc(N3CC4CCC(C3)O4)n2)cc1` [Example 61, 1-(4-(4-(8-oxa-3-azabicyclo[3.2.1]octan-3-yl)pyrimidin-2-yl)phenyl)-3-(pyridin-4-yl)urea], the IC50 reads like this: under setting [1], 100 to 1000 nM; under setting [2], 100 to 1000 nM.
Turning to `CCNC(=O)Nc1ccc(-c2cc(-c3cc(F)ccc3S(C)(=O)=O)nc(N3CCOC[C@@H]3C)n2)cc1` [Example 2, (S)-1-ethyl-3-(4-(6-(5-fluoro-2-(methylsulfonyl)phenyl)-2-(3-methylmorpholino)pyrimidin-4-yl)phenyl)urea], the IC50 under setting [1] lay in the range of 100 to 1000 nM and the IC50 under setting [2] is 100 to 1000 nM.
Turning to `C[C@H]1COCCN1c1nc(-c2ccc(NC(=O)NCCO)cc2)cc(-c2cc(F)ccc2S(C)(=O)=O)n1` [Example 41, (S)-1-(4-(6-(5-fluoro-2-(methylsulfonyl)phenyl)-2-(3-methylmorpholino)pyrimidin-4-yl)phenyl)-3-(2-hydroxyethyl)urea], the IC50 is less than 100 nM under setting [1] and less than 100 nM under setting [2].
As to `C[C@H]1COCCN1c1cc(-c2ccc(F)nc2)nc(-c2ccc(NC(=O)NC3CC3)cc2)n1` [Example 21, (S)-1-cyclopropyl-3-(4-(4-(6-fluoropyridin-3-yl)-6-(3-methylmorpholino)pyrimidin-2-yl)phenyl)urea], the IC50 under setting [1] lay in the range of 100 to 1000 nM and the IC50 under setting [2] was 100 to 1000 nM.
On to `C[C@H]1COCCN1c1cc(-c2ccccn2)nc(-c2ccc(NC(=O)NC3CC3)cc2)n1` [Example 42, (S)-1-cyclopropyl-3-(4-(4-(3-methylmorpholino)-6-(pyridin-2-yl)pyrimidin-2-yl)phenyl)urea], for which the IC50 under setting [1] is 100 to 1000 nM and the IC50 under setting [2] was in the range of 100 to 1000 nM.
`CS(=O)(=O)c1ccc(F)cc1-c1cc(-c2ccc(NC(=O)NCCO)cc2)nc(N2CCOCC2)n1` [Example 62, 1-(4-(6-(5-fluoro-2-(methylsulfonyl)phenyl)-2-morpholinopyrimidin-4-yl)phenyl)-3-(2-hydroxyethyl)urea]: the IC50 lay within 100 to 1000 nM under setting [1] and 100 to 1000 nM under setting [2].
In the case of `C[C@H]1COCCN1c1nc(-c2ccc(NC(=O)NCCF)cc2)cc(-c2cc(F)ccc2S(C)(=O)=O)n1` [Example 44, (S)-1-(4-(6-(5-fluoro-2-(methylsulfonyl)phenyl)-2-(3-methylmorpholino)pyrimidin-4-yl)phenyl)-3-(2-fluoroethyl)urea], the IC50 runs as follows: under setting [1], 100 to 1000 nM; under setting [2], 100 to 1000 nM.
Take `C[C@H]1COCCN1c1cc(-c2cncc(F)c2)nc(-c2ccc(NC(=O)NC3CC3)cc2)n1` [Example 23, (S)-1-cyclopropyl-3-(4-(4-(5-fluoropyridin-3-yl)-6-(3-methylmorpholino)pyrimidin-2-yl)phenyl)urea]: the IC50 under setting [1] was in the range of 100 to 1000 nM and the IC50 under setting [2] was 100 to 1000 nM.
As to `C[C@H]1COCCN1c1nc(-c2ccc(NC(=O)NCCCO)cc2)cc(-c2cc(F)ccc2S(C)(=O)=O)n1` [Example 64, (S)-1-(4-(6-(5-fluoro-2-(methylsulfonyl)phenyl)-2-(3-methylmorpholino)pyrimidin-4-yl)phenyl)-3-(3-hydroxypropyl)urea], the IC50 under setting [1] lay in the range of 100 to 1000 nM and the IC50 under setting [2] lay within 100 to 1000 nM.
